# US5545656A, “2-Oxidole-1-carboxamide pharmaceutical agents for the treatment of alzheimer's disease” (Pfizer Inc., priority 1995, dated 1996)
# Columns and labels:
# Type in all cases: cell-based
# [1] = system: production of PGD2 (cyclooxygenase pathway) by RBL-1 cells; test: Inhibition of the cyclooxygenase pathway (PGD2 formation) in RBL-1 cells; settings: Rattus norvegicus, 5 min, [14C]-arachidonic acid plus calcium ionophore, N in brackets, read-out: RBL-cells PGD2 formation IC50 ± SD (N)
# Protocol: METHOD FOR ASSESSING THE INHIBITION OF THE CYCLOOXYGENASE PATHWAY IN (RBL) CELLS
# a) RBL-1 cell incubations. […] A 0.5 ml allquot of cell suspension was preincubated at 30° C. for 10 minutes with 1 μl dimethyl sulfoxide (DMSO) solution of drug. […] Five minutes later, the incubation was terminated by the addition of a 0.27 ml volume of acetonitrile (ACN)/acetic acid (HOAc) (100:3). The mixture was then clarified of precipitated protein by centrifugation. Analysis of 5-LO/COX pathway products was performed by radioactivity monitoring after separation by high performance liquid chromatography (HPLC). […] The area under the curve (AUC) as measured in integration units for each product was compared to the average AUC value for untreated (no drug) controls. […] Half-maximal (IC50) points were estimated from these curves.
# [2] = system: IL-1β release by human monocytes; test: ATP-induced IL-1β posttranslational processing (ATP kick), ELISA; settings: Monocyte, LPS-stimulated human monocytes, IL-1β ELISA, read-out: Human Monocyte AtP kick % Inh.
# Protocol: PROTOCOL FOR ATP-INDUCED IL-Iβ POSTTRANSLATIONAL PROCESSING
# Cells: Human monocytes were isolated by Ficoll-Hypaque centrifugation of heparinized blood. The monocyte band off the gradient was collected, diluted with RPMI 1640, 5% fetal bovine serum (FBS), 20 mM N-[2[hydroxyethyl]piperazine-N-[2-ethanesulfonic acid] (Hepes), pH 7.3 (40 ml) and the cells were collected by centrifugation. The cell pellet was washed twice with 30 ml of RPMI 1640, 5% FBS, 20 mM Hepes (Maintenance Medium). The monocytes were resuspended in 50 ml of the Maintenance Medium. Into each well of a 96 well plate was added […] mononuclear cells. The cell suspension was diluted to a final concentration of 1.5×10^5 mononuclear cells. (To accomplish this, the cell suspension was diluted to a final concentration of 1.5×10^6 cell/ml and 0.2 ml was added to each well of the plate.) After incubating at 37° C. for 2 hours, the supernatant containing non-adherent cells was removed by aspiration. The adherent cells were washed once with 0.15 ml of Maintenance medium. Then, 0.15 ml of fresh Maintenance Medium was added and the cells were incubated overnight at 37° C.
# Stimulation: Lipopolysaccharide (LPS) was added to a final concentration of 10 ng/ml and incubated at 37° C. for 2 hours. […]
# [3] = system: IL-1β release by human monocytes; test: ATP kick, slightly different assay that employed metabolically labeled cells; settings: Monocyte, read-out: Human Monocyte AtP kick IC50 (No. Trials), starred values
# Source text: *Values for tenidap (the first compound in the table), and in one case
# ilonidap (the second compound in the table) were derived from a slightly
# different assay that employed metabolically labeled cells.
Compound,IC50 [1] [µM],inhibition at 19 µM [2] [%],IC50 [3] [µM]
Cc1ccc2c(c1)C(C(=O)c1cccs1)C(=O)N2C(N)=O (centres unmarked) [CH3 H 2'-thienyl],99,32,
NC(=O)N1C(=O)C(C(=O)C(F)(F)F)c2cc(Cl)ccc21 (centres unmarked) [Cl H Trifluoromethyl],37,,
"NC(=O)N1C(=O)C(C(=O)c2cccs2)c2cc(Cl)ccc21 (centres unmarked) [tenidap, 5-chloro-2,3-dihydro-2-oxo-3-(2-thienylcarbonyl)-indole-1-carboxamide]",0.02 ± 0.02,,40
NC(=O)N1C(=O)C(C(=O)c2ccoc2)c2cc(Cl)ccc21 (centres unmarked) [Cl H 3'-furyl],3.2,,
NC(=O)N1C(=O)C(C(=O)c2ccsc2)c2cc(Cl)ccc21 (centres unmarked) [Cl H 3'-thienyl],0.7,14,
